Drawing on US8999981B2, “3-amido-pyrrolo[3,4-C]pyrazole-5(1H, 4H,6H) carbaldehyde derivatives” (Pfizer Inc., priority 2007, dated 2015), this text covers Ki for 52 compounds.

The structures appear in SMILES notation.

In the test the target is Protein Kinase C beta 2 (PKCβII) (Homo sapiens (Human), UniProt P05771). In words: PKCβII coupled PK/LDH spectrophotometric kinase assay. Conditions: apparent Ki, ATP-competitive model (Morrison equation); 0.1 mM ATP, 30° C.; read-out: PKCb Ki. The test is classed as biochemical. As for the experimental part: This transfer is coupled to the oxidation of β-NADH through the activities of Pyruvate Kinase (PK) and Lactate Dehydrogenase (LDH). β-NADH conversion to NAD+ is monitored by the decrease in absorbance at 340 nm (e=6.22 cm^−1 mM^−1) using a Molecular Devices SPECTRA max PLUS spectrophotometer.
Sequence of Protein Kinase C beta 2 (PKCβII) (P05771 other isoform, or with tags, fused parts or gaps): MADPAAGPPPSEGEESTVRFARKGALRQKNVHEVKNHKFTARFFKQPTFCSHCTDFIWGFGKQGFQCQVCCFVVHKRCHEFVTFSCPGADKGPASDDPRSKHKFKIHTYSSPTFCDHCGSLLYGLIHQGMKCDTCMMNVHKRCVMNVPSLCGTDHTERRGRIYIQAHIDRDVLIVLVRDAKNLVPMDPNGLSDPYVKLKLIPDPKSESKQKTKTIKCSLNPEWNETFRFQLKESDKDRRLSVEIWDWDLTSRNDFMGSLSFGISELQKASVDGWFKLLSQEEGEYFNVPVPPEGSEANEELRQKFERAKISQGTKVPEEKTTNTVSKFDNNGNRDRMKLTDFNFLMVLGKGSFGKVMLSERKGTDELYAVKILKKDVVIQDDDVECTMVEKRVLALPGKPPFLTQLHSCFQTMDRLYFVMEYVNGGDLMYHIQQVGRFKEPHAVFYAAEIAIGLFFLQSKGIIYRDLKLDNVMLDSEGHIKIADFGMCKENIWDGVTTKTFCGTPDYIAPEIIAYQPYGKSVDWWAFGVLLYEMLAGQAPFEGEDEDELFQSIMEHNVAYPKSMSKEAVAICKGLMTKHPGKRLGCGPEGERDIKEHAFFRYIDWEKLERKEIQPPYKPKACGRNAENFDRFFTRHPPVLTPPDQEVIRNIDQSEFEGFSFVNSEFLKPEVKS
A typical assay was carried out on a 96-well, clear microtiter plate in a Molecular Devices spectrophotometer for 20 minutes at 30° C. in 0.1 mL of assay buffer containing 50 mM HEPES, pH 7.4, 5 nM PKC, 23 units of pyruvate kinase, 33 units of lactate dehydrogenase, 0.15 mM peptide, 0.1 mM ATP, 1 mM DTT, 4 mM PEP, 8 mM MgCl2, 0.3 mM NADH, 60 mM CaCl2, 10 mg/mL PS, 50 ng/mL PMA, 7.5% DMSO and from about 10,000 nM to 0.169 nM compound inhibitor. Stock solutions of 3-sn-phosphatidyl-L-serine (PS) and phorbol-12-myristate-13-acetate (PMA) were sonicated for 30 seconds just prior to addition to assay buffer and assays were initiated by the addition of 100 μM ATP.
Enzyme turnover values (kcat) were calculated according to […], where [E] is the total enzyme concentration. Enzyme inhibition constants (apparent K values) were determined by fitting initial velocities at variable inhibitor concentrations to a model for ATP competitive inhibition based on the Morrison equation). Morrison, J. F., Biochim. Biophys Acta 185: 269-286 (1969).
For the compound `CC[C@H]1CN(C(=O)N2Cc3c(NC(=O)c4ccccn4)n[nH]c3C2(C)C)[C@@H](C)CN1C` [Example A125], the Ki was determined as 93.9 nM.
For the compound `CCN1C[C@H](C)N(C(=O)N2Cc3c(NC(=O)c4ccc(F)cn4)n[nH]c3C2(C)C)C[C@@H]1C` [Example A126], the Ki was 22.2 nM.
Consider `CC1CN(C(=O)N2Cc3c(NC(=O)c4ccccn4)n[nH]c3C2(C)C)CCN1CC1CC1` (stereo not shown) [Example A127], for which the Ki was 134 nM.
To `CCN1CCN(C(=O)N2Cc3c(NC(=O)c4ccccn4)n[nH]c3C2(C)C)CC1C` (stereo not shown) [Example A128] belongs 156 nM; to `C[C@H]1CN(C)C(C)(C)CN1C(=O)N1Cc2c(NC(=O)c3ccccn3)n[nH]c2C1(C)C` [Example A129], 18.1 nM.
For the compound `C[C@H]1CN2CCC[C@H]2CN1C(=O)N1Cc2c(NC(=O)c3ccc(C(F)(F)F)cn3)n[nH]c2C1(C)C` [Example A130], the Ki was 31.5 nM.
To `CC[C@@H]1CN(C(=O)N2Cc3c(NC(=O)c4ccccn4)n[nH]c3C2(C)C)[C@@H](C)CN1C` [Example A131] belongs 37.2 nM; to `CCC1(CC)c2[nH]nc(NC(=O)c3ccccn3)c2CN1C(=O)N1C[C@@H]2CCCN2C[C@@H]1C` [Example A132], 61.9 nM.
As to `C[C@H]1CN(C)C2(CCC2)CN1C(=O)N1Cc2c(NC(=O)c3ccccn3)n[nH]c2C1(C)C` [Example A133], the Ki amounted to 8.58 nM.
With `CC(C)[C@H]1CN(C)C(C)(C)CN1C(=O)N1Cc2c(NC(=O)c3ccccn3)n[nH]c2C1(C)C` [Example A134], the Ki amounted to 90.1 nM.
As for `CC(C)[C@H]1CN(C)C(C)CN1C(=O)N1Cc2c(NC(=O)c3ccc(Cl)cn3)n[nH]c2C1(C)C` (stereo partly shown) [Example A135], the Ki is 51.2 nM.
Consider `C[C@H]1CN2CCC[C@@]2(C)CN1C(=O)N1Cc2c(NC(=O)c3ccc(F)cn3)n[nH]c2C1(C)C` [Example A138], for which the Ki was determined as 29.3 nM.
For `CC[C@H]1CN2CCC[C@@]2(C)CN1C(=O)N1Cc2c(NC(=O)c3ccc(F)cn3)n[nH]c2C1(C)C` [Example A139], the Ki amounted to 75.2 nM.
To `C[C@@H]1CN(C(=O)N2Cc3c(NC(=O)c4cc(C5CC5)on4)n[nH]c3C2(C)C)[C@@H](C)CN1C` [Example A140] belongs 26.8 nM; to `C[C@@H]1CN(C(=O)N2Cc3c(NC(=O)c4ccccn4)n[nH]c3C2(C)C)[C@@H](C)CN1CCCC#N` [Example A141], 23.6 nM; to `C[C@@H]1CN(C(=O)N2Cc3c(NC(=O)c4ccccn4)n[nH]c3C2(C)C)[C@@H](C)CN1CC1CCOCC1` [Example A143], 1.9 nM.
To `C[C@@H]1CN(C(=O)N2Cc3c(NC(=O)c4ccccn4)n[nH]c3C2(C)C)[C@@H](C)CN1CCCCC#N` [Example A144] belongs 38.3 nM; to `C[C@@H]1CN(C(=O)N2Cc3c(NC(=O)c4ccccn4)n[nH]c3C2(C)C)[C@@H](C)CN1CCC1CCOCC1` [Example A145, N-(5-((2R,5S)-2,5-dimethyl-1-(2(tetradehydro-2H-pyran-4-yl)methyl)piperazine-4-carbonyl)-6,6-dimethyl-1,4,5,6-tetrahydropyrrolo[3,4-c]pyrazol-3-yl)picolinamide], 17.6 nM; to `C[C@@H]1CN(C(=O)N2Cc3c(NC(=O)c4ccccn4)n[nH]c3C2(C)C)[C@@H](C)CN1C1CCOCC1` [Example A146], 1.7 nM.
To `C[C@@H]1CN(C(=O)N2Cc3c(NC(=O)c4ccccn4)n[nH]c3C2(C)C)[C@@H](C)CN1CC1CCOC1` (stereo partly shown) [Example A147] belongs below 10 nM.
Regarding `C[C@@H]1CN(C(=O)N2Cc3c(NC(=O)c4ccccn4)n[nH]c3C2(C)C)[C@@H](C)CN1Cc1cocn1` [Example A148], the Ki amounted to 48.3 nM.
To `C[C@@H]1CN(C(=O)N2Cc3c(NC(=O)c4ccc(F)cn4)n[nH]c3C2(C)C)[C@@H](C)CN1C1CCOCC1` [Example A149] belongs below 10 nM; to `C[C@H]1CN(C)[C@H](CCO)CN1C(=O)N1Cc2c(NC(=O)c3ccccn3)n[nH]c2C1(C)C` [Example A150], 42 nM.
With `C[C@H]1CN(C)[C@@H](CCO)CN1C(=O)N1Cc2c(NC(=O)c3ccccn3)n[nH]c2C1(C)C` [Example A151], the Ki worked out at 152 nM.
Turning to `C[C@@H]1CN(C(=O)N2Cc3c(NC(=O)c4ccccn4)n[nH]c3C23CC3)[C@@H](C)CN1CC1CCOCC1` [Example A152], the Ki is 76.2 nM.
`C[C@@H]1CN(C(=O)N2Cc3c(NC(=O)c4ccccn4)n[nH]c3C2(C)C)[C@@H](C)CN1CC1(C)COC1` [Example A153]: the Ki is 37 nM.
As to `C[C@H](CCO)N1C[C@H](C)N(C(=O)N2Cc3c(NC(=O)c4ccccn4)n[nH]c3C2(C)C)C[C@H]1C` [Example A154], the Ki came out at 25.1 nM.
Regarding `C[C@@H]1CN(C(=O)N2Cc3c(NC(=O)c4ccccn4)n[nH]c3C2(C)C)[C@@H](C)CN1[C@@H](C)CCO` [Example A155], the Ki is 43.3 nM.
To `C[C@@H]1CN(C(=O)N2Cc3c(NC(=O)c4ccccn4)n[nH]c3C2(C)C)[C@@H](C)CN1CCOCCO` [Example A156] belongs 108 nM.
As for `Cc1nc(C)c(C(=O)Nc2n[nH]c3c2CN(C(=O)N2C[C@@H](C)N(CCCO)C[C@@H]2C)C3(C)C)o1` [Example A160], the Ki worked out at 24.9 nM.
`C[C@@H]1CN(C(=O)N2Cc3c(NC(=O)c4ccc(F)cn4)n[nH]c3C2(C)C)[C@@H](C)CN1CCO` [Example A161]: the Ki came out at 38.8 nM.
For the compound `C[C@@H]1CN(C(=O)N2Cc3c(NC(=O)c4ccc(F)cn4)n[nH]c3C2(C)C)[C@@H](C)CN1CCCO` [Example A162], the Ki amounted to 21.7 nM.
On to `COCCCN1C[C@H](C)N(C(=O)N2Cc3c(NC(=O)c4ccc(F)cn4)n[nH]c3C2(C)C)C[C@H]1C` [Example A163], for which the Ki is 24.5 nM.
Take `COCCN1C[C@H](C)N(C(=O)N2Cc3c(NC(=O)c4ccc(F)cn4)n[nH]c3C2(C)C)C[C@H]1C` [Example A164]: the Ki stood at 56.9 nM.
Regarding `CC1(C)c2n[nH]c(NC(=O)c3ccccn3)c2CN1C(=O)C1(F)CCN(C2CCC2)CC1` [Example B1, Pyridine-2-carboxylic acid [5-(1-cyclobutyl-4-fluoro-piperidine-4-carbonyl)-6,6-dimethyl-1,4,5,6-tetrahydro-pyrrolo[3,4-c]pyrazol-3-yl]-amide], the Ki was 75.3 nM.
To `CC1(C)c2[nH]nc(NC(=O)c3ccccn3)c2CN1C(=O)C1(F)CCN(C2CCOCC2)CC1` [Example B2, Pyridine-2-carboxylic acid {5-[4-fluoro-1-(tetrahydro-pyran-4-yl)-piperidine-4-carbonyl]-6,6-dimethyl-1,4,5,6-tetrahydro-pyrrolo[3,4-c]pyrazol-3-yl}-amide] belongs 89.8 nM; to `Cc1nc(C)c(C(=O)Nc2n[nH]c3c2CN(C(=O)N2C[C@@H](C)N(C)C[C@@H]2C)C3(C)C)o1` [Example C2], 50.3 nM; to `Cc1nc(C(=O)Nc2n[nH]c3c2CN(C(=O)N2C[C@@H](C)N(C)C[C@@H]2C)C3(C)C)cs1` [Example C3], 35.1 nM.
For the compound `Cc1ocnc1C(=O)Nc1n[nH]c2c1CN(C(=O)N1C[C@@H](C)N(C)C[C@@H]1C)C2(C)C` [Example C4], the Ki worked out at 45.1 nM.
For `Cc1ncoc1C(=O)Nc1n[nH]c2c1CN(C(=O)N1C[C@@H](C)N(C)C[C@@H]1C)C2(C)C` [Example C5], the Ki turned out to be 46.5 nM.
For the compound `CCc1nc(C)c(C(=O)Nc2n[nH]c3c2CN(C(=O)N2C[C@@H](C)N(C)C[C@@H]2C)C3(C)C)o1` [Example C6], the Ki is 25.7 nM.
To `CCc1ocnc1C(=O)Nc1n[nH]c2c1CN(C(=O)N1C[C@@H](C)N(C)C[C@@H]1C)C2(C)C` [Example C7] belongs 66.4 nM.
As for `C[C@@H]1CN(C(=O)N2Cc3c(NC(=O)c4coc(C5CC5)n4)n[nH]c3C2(C)C)[C@@H](C)CN1C` [Example C8], the Ki is 25 nM.
In the case of `CCc1cc(C(=O)Nc2n[nH]c3c2CN(C(=O)N2C[C@@H]4CCCN4C[C@@H]2C)C3(C)C)no1` [Example E1], the Ki was 61.6 nM.
In the case of `Cc1cnc(C(=O)Nc2n[nH]c3c2CN(C(=O)N2C[C@@H]4CCCN4C[C@@H]2C)C3(C)C)cn1` [Example E2], the Ki turned out to be 72.9 nM.
Take `C[C@H]1CN2CCC[C@H]2CN1C(=O)N1Cc2c(NC(=O)c3cc4ccccc4cn3)n[nH]c2C1(C)C` [Example E3]: the Ki was found to be 5.51 nM.
For the compound `C[C@H]1CN2CCC[C@H]2CN1C(=O)N1Cc2c(NC(=O)c3ccc4cnccc4n3)n[nH]c2C1(C)C` [Example E4], the Ki is 6.17 nM.
Turning to `COc1cccc(C(=O)Nc2n[nH]c3c2CN(C(=O)N2C[C@@H]4CCCN4C[C@@H]2C)C3(C)C)c1` [Example E5], the Ki was 37.5 nM.
With `C[C@H]1CN2CCC[C@H]2CN1C(=O)N1Cc2c(NC(=O)c3cc(C4CC4)n[nH]3)n[nH]c2C1(C)C` [Example E6], the Ki was determined as 6.81 nM.
In the case of `C[C@H]1CN2CCC[C@H]2CN1C(=O)N1Cc2c(NC(=O)c3cnc4ccccc4n3)n[nH]c2C1(C)C` [Example E7], the Ki is 12.5 nM.
To `C[C@H]1CN2CCC[C@H]2CN1C(=O)N1Cc2c(NC(=O)c3ccnn3C)n[nH]c2C1(C)C` [Example E8] belongs 118 nM; to `Cc1nc(C(=O)Nc2n[nH]c3c2CN(C(=O)N2C[C@@H]4CCCN4C[C@@H]2C)C3(C)C)cs1` [Example E9], 31.3 nM.
